System: 699152-130-R-J1-PDC complex spheroid viability
Test: Anticancer human tumor 699152-130-R-J1-PDC patient-derived pancreatic carcinoma cell line growth inhibition [POLQ]
Settings: for IC50: curve of first compound; for viability, T/C: stronger effect = lower value
How it was run: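 Three-cell-type spheroids modelling solid tumor plus stroma served as the readout system; POL inhibitors were tested individually and in combination, concentration ranges set by clinical Cmax where known.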

[1] = second compound 0.0316 µM, first compound 0.0316 µM
[2] = second compound 0.0316 µM, first compound 0.1 µM
[3] = second compound 0.0316 µM, first compound 0.316 µM
[4] = second compound 0.0316 µM, first compound 1 µM
[5] = second compound 0.0316 µM, first compound 3.16 µM
[6] = second compound 0.0316 µM, first compound 10 µM
[7] = second compound 0.1 µM, first compound 0.0316 µM
[8] = second compound 0.1 µM, first compound 0.1 µM
[9] = second compound 0.1 µM, first compound 0.316 µM
[10] = second compound 0.1 µM, first compound 1 µM
[11] = second compound 0.1 µM, first compound 3.16 µM
[12] = second compound 0.1 µM, first compound 10 µM
[13] = second compound 0.316 µM, first compound 0.0316 µM
[14] = second compound 0.316 µM, first compound 0.1 µM
[15] = second compound 0.316 µM, first compound 0.316 µM
[16] = second compound 0.316 µM, first compound 1 µM
[17] = second compound 0.316 µM, first compound 3.16 µM
[18] = second compound 0.316 µM, first compound 10 µM
[19] = second compound 1 µM, first compound 0.0316 µM
[20] = second compound 1 µM, first compound 0.1 µM
[21] = second compound 1 µM, first compound 0.316 µM
[22] = second compound 1 µM, first compound 1 µM
[23] = second compound 1 µM, first compound 3.16 µM
[24] = second compound 1 µM, first compound 10 µM
[25] = second compound 3.16 µM, first compound 0.0316 µM
[26] = second compound 3.16 µM, first compound 0.1 µM
[27] = second compound 3.16 µM, first compound 0.316 µM
[28] = second compound 3.16 µM, first compound 1 µM
[29] = second compound 3.16 µM, first compound 3.16 µM
[30] = second compound 3.16 µM, first compound 10 µM
[31] = second compound 10 µM, first compound 0.0316 µM
[32] = second compound 10 µM, first compound 0.1 µM
[33] = second compound 10 µM, first compound 0.316 µM
[34] = second compound 10 µM, first compound 1 µM
[35] = second compound 10 µM, first compound 3.16 µM
[36] = second compound 10 µM, first compound 10 µM
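Also: spheroids exposed to agents for 7 days before viability reading.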
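For viability, T/C in this document: percent of DMSO vehicle control viability so 100% = vehicle and 0% = no viable signal.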

`CCc1cc2c(N3CCc4c(cc(Cn5ccnc5)cc4-c4cn(C)nc4C(F)(F)F)C3=O)ccnc2c(OC)n1` + COC1C(OC(N)=O)C(O)C(Oc2ccc3c(O)c(NC(=O)c4ccc(O)c(CC=C(C)C)c4)c(=O)oc3c2C)OC1(C)C was tested, and the IC50 (second compound 0.0316 µM) was over 10 µM, the IC50 (second compound 0.1 µM) was over 10 µM and the IC50 (second compound 0.316 µM) was over 10 µM. For the same molecule, the IC50 (second compound 1 µM) was over 10 µM, the IC50 (second compound 3.16 µM) was over 10 µM and the IC50 (second compound 10 µM) was over 10 µM. For the same molecule, the viability, T/C [1] was 82.1%, the viability, T/C [2] was 102% and the viability, T/C [3] was 95.5%. The viability, T/C [4] was 107%, the viability, T/C [5] was 104% and the viability, T/C [6] was 97.3%. For the same molecule, the viability, T/C [7] was 91.7%, the viability, T/C [8] was 89.8% and the viability, T/C [9] was 87.4%. It also gave a viability, T/C [10] of 87.6%, a viability, T/C [11] of 109% and a viability, T/C [12] of 96.4%. It also gave a viability, T/C [13] of 88.2%, a viability, T/C [14] of 89.8% and a viability, T/C [15] of 99.9%. The viability, T/C [16] was 99%, the viability, T/C [17] was 105% and the viability, T/C [18] was 97%. It also gave a viability, T/C [19] of 97.1%, a viability, T/C [20] of 85% and a viability, T/C [21] of 90.4%. It also gave a viability, T/C [22] of 112%, a viability, T/C [23] of 101% and a viability, T/C [24] of 91.9%. It also gave a viability, T/C [25] of 86.7%, a viability, T/C [26] of 91.4% and a viability, T/C [27] of 89.6%. For the same molecule, the viability, T/C [28] was 96%, the viability, T/C [29] was 98.4% and the viability, T/C [30] was 93.9%. The viability, T/C [31] was 105%, the viability, T/C [32] was 80.6% and the viability, T/C [33] was 85.3%. For the same molecule, the viability, T/C [34] was 101%, the viability, T/C [35] was 102% and the viability, T/C [36] was 101%.
Molecule `COc1ccc([C@@H](O)c2cc(-c3ncnc4cc(N5CCOCC5)ccc34)c(F)cc2Cl)nn1` + Cc1cccc(N(C)C(=O)C2C(O)CCN2c2nc(C)cc(C(F)(F)F)c2C#N)c1 has an IC50 (second compound 0.0316 µM) of 4.08 µM, an IC50 (second compound 0.1 µM) of 3.67 µM and an IC50 (second compound 0.316 µM) of 4.14 µM. The IC50 (second compound 1 µM) was 3.54 µM, the IC50 (second compound 3.16 µM) was 3.35 µM and the IC50 (second compound 10 µM) was 4.46 µM. For the same molecule, the viability, T/C [1] was 96.5%, the viability, T/C [2] was 94.2% and the viability, T/C [3] was 98.3%. For the same molecule, the viability, T/C [4] was 78.9%, the viability, T/C [5] was 58.8% and the viability, T/C [6] was 22.6%. The viability, T/C [7] was 101%, the viability, T/C [8] was 106% and the viability, T/C [9] was 87.7%. For the same molecule, the viability, T/C [10] was 85.3%, the viability, T/C [11] was 52.5% and the viability, T/C [12] was 22.9%. It also gave a viability, T/C [13] of 106%, a viability, T/C [14] of 88.9% and a viability, T/C [15] of 90.4%. For the same molecule, the viability, T/C [16] was 84%, the viability, T/C [17] was 56.9% and the viability, T/C [18] was 22.6%. For the same molecule, the viability, T/C [19] was 109%, the viability, T/C [20] was 95.8% and the viability, T/C [21] was 90.1%. For the same molecule, the viability, T/C [22] was 78.9%, the viability, T/C [23] was 51.4% and the viability, T/C [24] was 21.2%. The viability, T/C [25] was 111%, the viability, T/C [26] was 94.7% and the viability, T/C [27] was 83.6%. It also gave a viability, T/C [28] of 75.2%, a viability, T/C [29] of 51% and a viability, T/C [30] of 27.4%. It also gave a viability, T/C [31] of 101%, a viability, T/C [32] of 100% and a viability, T/C [33] of 88.8%. For the same molecule, the viability, T/C [34] was 74.1%, the viability, T/C [35] was 60.2% and the viability, T/C [36] was 30.9%.
In the case of `CC1COCCN1c1cc(C2(O)CC3CCC(C2)O3)c2cnn(-c3ccn[nH]3)c2n1` (stereo unspecified) + Cc1cccc(N(C)C(=O)C2C(O)CCN2c2nc(C)cc(C(F)(F)F)c2C#N)c1, the IC50 (second compound 0.0316 µM) is reported as 1.99 µM, the IC50 (second compound 0.1 µM) is reported as 1.2 µM and the IC50 (second compound 0.316 µM) is reported as 1.05 µM. The IC50 (second compound 1 µM) was 1.69 µM, the IC50 (second compound 3.16 µM) was 1.74 µM and the IC50 (second compound 10 µM) was 1.94 µM. For the same molecule, the viability, T/C [1] was 92.1%, the viability, T/C [2] was 83.9% and the viability, T/C [3] was 64.9%. It also gave a viability, T/C [4] of 60.6%, a viability, T/C [5] of 44.5% and a viability, T/C [6] of 33.1%. For the same molecule, the viability, T/C [7] was 94.6%, the viability, T/C [8] was 78.7% and the viability, T/C [9] was 60.9%. The viability, T/C [10] was 52.2%, the viability, T/C [11] was 44% and the viability, T/C [12] was 38.6%. It also gave a viability, T/C [13] of 93%, a viability, T/C [14] of 94% and a viability, T/C [15] of 64.6%. It also gave a viability, T/C [16] of 54.3%, a viability, T/C [17] of 47.4% and a viability, T/C [18] of 39.7%. The viability, T/C [19] was 96.3%, the viability, T/C [20] was 83.1% and the viability, T/C [21] was 66.4%. It also gave a viability, T/C [22] of 52.8%, a viability, T/C [23] of 47.5% and a viability, T/C [24] of 37.8%. It also gave a viability, T/C [25] of 98.2%, a viability, T/C [26] of 87.2% and a viability, T/C [27] of 62.3%. The viability, T/C [28] was 58.8%, the viability, T/C [29] was 45% and the viability, T/C [30] was 33.6%. For the same molecule, the viability, T/C [31] was 84.6%, the viability, T/C [32] was 81.8% and the viability, T/C [33] was 69.7%. For the same molecule, the viability, T/C [34] was 57.3%, the viability, T/C [35] was 44.9% and the viability, T/C [36] was 39.1%.
